Reference: patent US10765114B2, “4-amino-6-(pyridyl and 2-substitutedphenyl)-picolinates and 6-amino-2-(pyridyl and 2-substitutedphenyl)-pyrimidine-4-carboxylates and their use as herbicides” (Dow AgroSciences LLC, priority 2013, dated 2020)
Where two headings read alike, the source gives them in different places.

Legend:
[1] = tested on: Key Broadleaf Weed and Crop Species; test: Post-Emergent Test II (Table 5); type: in vivo; conditions: post-emergence, 336 h; for pest or weed control at 70 g/ha: application rate 70 (kg ai/ha; footnote: g ai/ha); for pest or weed control at 140 g/ha: application rate 140 (kg ai/ha; footnote: g ai/ha)
Procedure, shortened: (§1)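 Plants grown in a greenhouse (~15 h photoperiod, 23-29° C day) to first or second true leaf stage were sprayed post-emergence at 187 L/ha with compound in acetone/DMSO-based aqueous spray containing crop oil concentrate and surfactant, applied at a high rate plus ½× to 1/16× serial rates. Injury was scored visually 14 days later, 0-100% versus untreated plants.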

[2] = tested on: Key Grass and Sedge Weeds as well as Grass Crops; test: Post-Emergent Test II (Table 6); type: in vivo; conditions: post-emergence, 336 h, 14 days after application; for pest or weed control at 70 g/ha: 70 g ai/ha; for pest or weed control at 140 g/ha: 140 g ai/ha
Procedure, shortened: as §1

[3] = Abutilon theophrasti, ABUTH: velvetleaf (Abutilon theophrasti), read-out: Visual Growth Reduction (%) 14 Days After Application ABUTH
[4] = Amaranthus retroflexus, AMARE: redroot pigweed (Amaranthus retroflexus), read-out: Visual Growth Reduction (%) 14 Days After Application AMARE
[5] = Brassica napus, BRSSS: oilseed rape, canola (Brassica napus), read-out: Visual Growth Reduction (%) 14 Days After Application BRSSS
[6] = Chenopodium album, CHEAL: lambsquarters (Chenopodium album), read-out: Visual Growth Reduction (%) 14 Days After Application CHEAL
[7] = Euphorbia heterophylla, EPHHL: wild poinsettia (Euphorbia heterophylla), read-out: Visual Growth Reduction (%) 14 Days After Application EPHHL
[8] = Helianthus annuus, HELAN: sunflower (Helianthus annuus), read-out: Visual Growth Reduction (%) 14 Days After Application HELAN
[9] = Viola tricolor, VIOTR: wild pansy (Viola tricolor), read-out: Visual Growth Reduction (%) 14 Days After Application VIOTR
[10] = CYPSS, read-out: Visual Growth Reduction (%) 14 Days After Application CYPSS
[11] = DIGSA: crabgrass (Digitaria sanguinalis), read-out: Visual Growth Reduction (%) 14 Days After Application DIGSA
[12] = ECHSS, read-out: Visual Growth Reduction (%) 14 Days After Application ECHSS
[13] = ORYSS (crop), read-out: Visual Growth Reduction (%) 14 Days After Application ORYSS
[14] = SETFA: giant foxtail (Setaria faberi), read-out: Visual Growth Reduction (%) 14 Days After Application SETFA
[15] = SORVU: grain sorghum (Sorghum vulgare), read-out: Visual Growth Reduction (%) 14 Days After Application SORVU
[16] = TRZSS (crop), read-out: Visual Growth Reduction (%) 14 Days After Application TRZSS
[17] = ZEAMX: maize, corn (Zea mays), read-out: Visual Growth Reduction (%) 14 Days After Application ZEAMX

Structure (SMILES) | pest or weed control at 70 g/ha [1, 3] | pest or weed control at 140 g/ha [1, 3] | pest or weed control at 70 g/ha [1, 4] | pest or weed control at 140 g/ha [1, 4] | pest or weed control at 70 g/ha [1, 5] | pest or weed control at 140 g/ha [1, 5] | pest or weed control at 70 g/ha [1, 6] | pest or weed control at 140 g/ha [1, 6] | pest or weed control at 70 g/ha [1, 7] | pest or weed control at 140 g/ha [1, 7] | pest or weed control at 70 g/ha [1, 8] | pest or weed control at 140 g/ha [1, 8] | pest or weed control at 70 g/ha [1, 9] | pest or weed control at 140 g/ha [1, 9] | pest or weed control at 70 g/ha [2, 10] | pest or weed control at 140 g/ha [2, 10] | pest or weed control at 70 g/ha [2, 11] | pest or weed control at 140 g/ha [2, 11] | pest or weed control at 70 g/ha [2, 12] | pest or weed control at 140 g/ha [2, 12] | further results
COC(=O)c1nc(-c2ccc(Cl)c(F)c2C(F)F)cc(N)c1Cl [Compound 53, methyl 4-amino-3-chloro-6-(4-chloro-2-(difluoromethyl)-3-fluorophenyl)picolinate] | 85 to 94% | 0 to 29% | 95 to 100% | 95 to 100% | 45 to 59% | 45 to 59% | 95 to 100% | 95 to 100% | 0 to 29% | 0 to 29% | 60 to 74% | 75 to 84% | 0 to 29% | 0 to 29% | 0 to 29% | 0 to 29% | 0 to 29% | 0 to 29% | 0 to 29% | 0 to 29% | pest or weed control at 70 g/ha [2, 13]: 0 to 29%; pest or weed control at 140 g/ha [2, 13]: 0 to 29%; pest or weed control at 70 g/ha [2, 14]: 0 to 29%; pest or weed control at 140 g/ha [2, 14]: 0 to 29%; pest or weed control at 70 g/ha [2, 15]: 0 to 29%; pest or weed control at 140 g/ha [2, 15]: 0 to 29%; pest or weed control at 70 g/ha [2, 16]: 0 to 29%; pest or weed control at 140 g/ha [2, 16]: 0 to 29%; pest or weed control at 70 g/ha [2, 17]: 0 to 29%; pest or weed control at 140 g/ha [2, 17]: 0 to 29%
COC(=O)c1nc(-c2ccc(I)nc2)c(F)c(N)c1Cl [Compound 54, methyl 4-amino-5-chloro-3-fluoro-6′-Iodo-[2,3′-bipyridine]-6-carboxylate] | 85 to 94% | 85 to 94% | 85 to 94% | 85 to 94% | 85 to 94% | 95 to 100% | 95 to 100% | 95 to 100% | 75 to 84% | 85 to 94% | 85 to 94% | 95 to 100% | 75 to 84% | 85 to 94% | 75 to 84% | 85 to 94% | 60 to 74% | 75 to 84% | 75 to 84% | 85 to 94% | pest or weed control at 70 g/ha [2, 13]: 0 to 29%; pest or weed control at 140 g/ha [2, 13]: 0 to 29%; pest or weed control at 70 g/ha [2, 14]: 60 to 74%; pest or weed control at 140 g/ha [2, 14]: 60 to 74%; pest or weed control at 70 g/ha [2, 15]: 45 to 59%; pest or weed control at 140 g/ha [2, 15]: 60 to 74%; pest or weed control at 70 g/ha [2, 16]: 60 to 74%; pest or weed control at 140 g/ha [2, 16]: 75 to 84%; pest or weed control at 70 g/ha [2, 17]: 45 to 59%; pest or weed control at 140 g/ha [2, 17]: 60 to 74%
Cc1c(-c2nc(C(=O)O)c(Cl)c(N)c2F)ccc(C(F)(F)F)c1F [Compound 55] | 45 to 59% | 45 to 59% | 0 to 29% | 0 to 29% | 30 to 44% | 45 to 59% | 60 to 74% | 85 to 94% | 0 to 29% | 45 to 59% | 85 to 94% | 95 to 100% | 0 to 29% | 0 to 29% | 0 to 29% | 0 to 29% | 0 to 29% | 0 to 29% | 0 to 29% | 0 to 29% | pest or weed control at 70 g/ha [2, 13]: 0 to 29%; pest or weed control at 140 g/ha [2, 13]: 0 to 29%; pest or weed control at 70 g/ha [2, 15]: 0 to 29%; pest or weed control at 140 g/ha [2, 15]: 0 to 29%; pest or weed control at 70 g/ha [2, 16]: 0 to 29%; pest or weed control at 140 g/ha [2, 16]: 0 to 29%; pest or weed control at 70 g/ha [2, 17]: 45 to 59%; pest or weed control at 140 g/ha [2, 17]: 45 to 59%
Nc1cc(-c2ccc(Cl)c(F)c2C(=O)O)nc(C(=O)O)c1Cl [Compound 56, 4-Amino-6-(2-carboxy-4-chloro-3-fluorophenyl)-3-chloropicolinic acid] | 0 to 29% | 0 to 29% | 0 to 29% | 0 to 29% | 0 to 29% | 0 to 29% | 45 to 59% | 75 to 84% | 0 to 29% | 0 to 29% | 0 to 29% | 0 to 29% | 0 to 29% | 0 to 29% | 0 to 29% | 0 to 29% | 0 to 29% | 0 to 29% | 0 to 29% | 0 to 29% | pest or weed control at 70 g/ha [2, 13]: 0 to 29%; pest or weed control at 140 g/ha [2, 13]: 0 to 29%; pest or weed control at 70 g/ha [2, 14]: 0 to 29%; pest or weed control at 140 g/ha [2, 14]: 0 to 29%; pest or weed control at 70 g/ha [2, 15]: 0 to 29%; pest or weed control at 140 g/ha [2, 15]: 0 to 29%; pest or weed control at 70 g/ha [2, 16]: 0 to 29%; pest or weed control at 140 g/ha [2, 16]: 0 to 29%; pest or weed control at 70 g/ha [2, 17]: 0 to 29%; pest or weed control at 140 g/ha [2, 17]: 0 to 29%
